From publication PMC3503319 (Biochemistry, 2010)

Target: Mtb DTBS (BioD) (Mycobacterium tuberculosis, UniProt P9WPQ5)
Sequence (P9WPQ5 whole entry): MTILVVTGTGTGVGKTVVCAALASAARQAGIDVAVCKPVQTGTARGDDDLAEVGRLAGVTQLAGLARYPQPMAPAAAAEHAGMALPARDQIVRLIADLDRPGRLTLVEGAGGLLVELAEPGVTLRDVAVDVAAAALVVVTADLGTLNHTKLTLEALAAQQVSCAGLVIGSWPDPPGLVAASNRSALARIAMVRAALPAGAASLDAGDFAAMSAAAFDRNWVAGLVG

Compound: C[C@H](N)[C@@H](CCCCCC(=O)O)NC(=O)O [DAPA-carbamate]
- X-ray crystal structure, 2.05 Å (crystal soaked in 10 mM DAPA): additional electron density attached to the N7 atom of DAPA that fits the carbon dioxide
